Test results published in patent US9493444B2 (Merck Patent GmbH, priority 2012, dated 2016).

The compounds below were run on Wnt pathway (TCF-dependent transcription in HEK293 luciferase reporter cell line with ER-DSH construct) (assay: Cellular assay for Wnt pathway activity (luciferase reporter)). Settings: Homo sapiens; Wnt pathway inhibition, HEK293 luciferase reporter cells (ER-DSH, TCF promoter), 24 hours incubation, estrogen-induced.
Assay type: cell-based
In short: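 Luminescent luciferase read-out after 24 h compound exposure at 1 nM to 30 μM, with TCF-driven transcription switched on by estrogen addition. IC50 values come from curve fits of data normalized against the vehicle-only control.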

Row | Structure (SMILES) | IC50
1 | CC(=O)N(C)CCN(C)c1cncc(Oc2ccc(Cl)cc2F)n1 [Compound 110, N-(2-{[6-(4-Chloro-2-fluoro-phenoxy)-pyrazin-2-yl]-methyl-amino}-ethyl)-N-methyl-acetamide] | 200 to 1000 nM
2 | NC(=O)CCNc1cncc(Oc2ccc(-c3ccc(CO)nc3)cc2)n1 [Compound 299, 3-{6-[4-(6-Hydroxy-methyl-pyridin-3-yl)-phenoxy]-pyrazin-2-ylamino}-propionamide] | 1000 to 10000 nM
3 | CC(=O)N(C)CCN(C)c1cncc(Oc2ccc3c(cnn3C)c2)n1 [Compound 317, N-Methyl-N-(2-{methyl-[6-(1-methyl-1H-indazol-5-yloxy)-pyrazin-2-yl]-amino}-ethyl)-acetamide] | < 200 nM
4 | CC(=O)N(C)CCSc1cncc(Oc2ccc(-c3ccc(C)cn3)cc2)n1 [Compound 153, N-Methyl-N-(2-{6-[4-(5-methyl-pyridin-2-yl)-phenoxy]-pyrazin-2-ylsulfanyl}-ethyl)-acetamide] | < 200 nM
5 | CCOC(=O)c1ncoc1-c1ccc(Oc2cncc(N(C)CCN(C)C(C)=O)n2)cc1 [Compound 187, 5-[4-(6-{[2-(Acetyl-methyl-amino)-ethyl]-methyl-amino}-pyrazin-2-yloxy)-phenyl]-oxazole-4-carboxylic acid ethyl ester] | 200 to 1000 nM
6 | CC(=O)N(C)CCN(C)c1cncc(Oc2ccc(Br)c(C)c2)n1 [Compound 111, N-(2-{[6-(4-Bromo-3-methyl-phenoxy)-pyrazin-2-yl]-methyl-amino}-ethyl)-N-methyl-acetamide] | 200 to 1000 nM
7 | CC(=O)N(C)CCN(C)c1cncc(Oc2cccc(N(C)C)c2)n1 [Compound 114, N-(2-{[6-(3-Dimethyl-amino-phenoxy)-pyrazin-2-yl]-methyl-amino}-ethyl)-N-methyl-acetamide] | 1000 to 10000 nM
8 | CC(=O)N(C)CCN(C)c1cncc(Oc2ccc(-c3ccc(F)cn3)cc2)n1 [Compound 152, N-[2-({6-[4-(5-Fluoro-pyridin-2-yl)-phenoxy]-pyrazin-2-yl}-methyl-amino)-ethyl]-N-methyl-acetamide] | < 200 nM
9 | CC(=O)N(C)CCN(C)c1cncc(Oc2ccc(-c3ccnc(O)c3)cc2)n1 [Compound 204, N-[2-({6-[4-(2-Hydroxy-pyridin-4-yl)-phenoxy]-pyrazin-2-yl}-methyl-amino)-ethyl]-N-methyl-acetamide] | 200 to 1000 nM
10 | CCC(=O)N(C)CCN(C)c1cncc(Oc2ccc(F)cc2)n1 [Compound 34, N-(2-{[6-(4-Fluoro-phenoxy)pyrazin-2-yl]-methyl-amino}-ethyl)-N-methyl-propionamide] | 1000 to 10000 nM
11 | CC(=O)N(C)CCNc1cncc(Cc2ccccc2)n1 [Compound 319, N-[2-(6-Benzyl-pyrazin-2-ylamino)-ethyl]-N-methyl-acetamide] | 200 to 1000 nM
12 | CCN(CCSc1cncc(Oc2ccc(-c3ccc(C)cn3)cc2)n1)C(C)=O [Compound 17, N-Ethyl-N-(2-{6-[4-(5-methyl-pyridin-2-yl)-phenoxy]-pyrazin-2-ylsulfanyl}-ethyl)-acetamide] | < 200 nM
13 | CC(=O)N(C)CCN(C)c1cncc(Oc2ccc(-c3nccs3)cc2)n1 [Compound 158, N-Methyl-N-(2-{methyl-[6-(4-thiazol-2-yl-phenoxy)-pyrazin-2-yl]-amino}-ethyl)-acetamide] | < 200 nM
14 | CC(=O)N(C)CCN(C)c1cncc(Oc2ccc(-c3ccccc3)cc2)n1 [Compound 98, N-(2-{[6-(Biphenyl-4-yloxy)-pyrazin-2-yl]-methyl-amino}-ethyl)-N-methyl-acetamide] | < 200 nM
15 | CC(=O)N(C)CCN(C)c1cncc(Oc2ccc(C(C)C)cc2)n1 [Compound 95, N-(2-{[6-(4-Isopropyl-phenoxy)-pyrazin-2-yl]-methyl-amino}-ethyl)-N-methyl-acetamide] | < 200 nM
16 | CCc1ccnc(-c2ccc(Oc3cncc(N(C)CCN(C)C(C)=O)n3)cc2)c1 [Compound 167, N-[2-({6-[4-(4-Ethyl-pyridin-2-yl)-phenoxy]-pyrazin-2-yl}-methyl-amino)-ethyl]-N-methyl-acetamide] | 200 to 1000 nM
17 | CC(=O)N(C)CCN(C)c1cncc(Oc2ccc(-c3ccc(N=[N+]=[N-])cn3)cc2)n1 [Compound 273, N-[2-({6-[4-(5-Azido-pyridin-2-yl)-phenoxy]-pyrazin-2-yl}-methyl-amino)-ethyl]-N-methyl-acetamide] | < 200 nM
18 | CC(=O)N(C)CCN(C)c1cncc(Oc2ccc(-c3ccc(C)nc3)cc2)n1 [Compound 183, N-Methyl-N-[2-(methyl-{6-[4-(6-methyl-pyridin-3-yl)-phenoxy]-pyrazin-2-yl}-amino)-ethyl]-acetamide] | < 200 nM
19 | COC(=O)CCc1ccc(Oc2cncc(N(C)CCN(C)C(C)=O)n2)cc1 [Compound 141, 3-[4-(6-{[2-(Acetyl-methyl-amino)-ethyl]-methyl-amino}-pyrazin-2-yloxy)-phenyl]-propionic acid methyl ester] | 1000 to 10000 nM
20 | CC(=O)N(C)CCN(C)c1cncc(Oc2ccc(-c3cccc(N4CCN(C)CC4)n3)cc2F)n1 [Compound 253, N-{2-[(6-{2-Fluoro-4-[6-(4-methyl-piperazin-1-yl)-pyridin-2-yl]-phenoxy}-pyrazin-2-yl)-methyl-amino]-ethyl}-N-methyl-acetamide] | < 200 nM
21 | CC(=O)N(C)CCN(C)c1cncc(Oc2ccc(-c3cccc(C(N)=O)n3)cc2)n1 [Compound 170, 6-[4-(6-{[2-(Acetyl-methyl-amino)-ethyl]-methyl-amino}-pyrazin-2-yloxy)-phenyl]-pyridine-2-carboxylic acid amide] | < 200 nM
22 | CC(=O)N(C)CCCN(C)c1cncc(Oc2ccc(F)cc2)n1 [Compound 83, N-(3-{[6-(4-Fluoro-phenoxy)-pyrazin-2-yl]-methyl-amino}-propyl)-N-methyl-acetamide] | 1000 to 10000 nM
23 | CC(=O)N(C)CCN(C)c1cncc(Oc2ccc(N3CCN(c4ccncc4)CC3)cc2)n1 [Compound 132, N-Methyl-N-[2-(methyl-{6-[4-(4-pyridin-4-yl-piperazin-1-yl)-phenoxy]-pyrazin-2-yl}-amino)-ethyl]-acetamide] | < 200 nM
24 | CC(=O)N(C)CCN(C)c1cncc(Oc2ccc(-c3ccnc4ccccc34)cc2)n1 [Compound 195, N-Methyl-N-(2-{methyl-[6-(4-quinolin-4-yl-phenoxy)-pyrazin-2-yl]-amino}-ethyl)-acetamide] | < 200 nM
25 | CCN(CCNc1cncc(Oc2cccc(F)c2)n1)C(C)=O [Compound 70, N-Ethyl-N-{2-[6-(3-fluoro-phenoxy)-pyrazin-2-ylamino]-ethyl}-acetamide] | 1000 to 10000 nM
26 | CC(=O)N(C)CCCc1cncc(Oc2ccc(-c3ccc([N+](=O)[O-])cn3)cc2F)n1 [Compound 274, N-(3-{6-[2-Fluoro-4-(5-nitro-pyridin-2-yl)-phenoxy]-pyrazin-2-yl}-propyl)-N-methyl-acetamide] | 1000 to 10000 nM
27 | CC(=O)N(C)CCN(C)c1cncc(Oc2ccc(-c3ccnc(N)n3)cc2)n1 [Compound 202, N-[2-({6-[4-(2-Amino-pyrimidin-4-yl)-phenoxy]-pyrazin-2-yl}-methyl-amino)-ethyl]-N-methyl-acetamide] | < 200 nM
28 | CC(=O)N(C)CCN(C)c1cncc(Sc2ccc(F)cc2)n1 [Compound 129, N-(2-{[6-(4-Fluoro-phenyl-sulfanyl)-pyrazin-2-yl]-methyl-amino}-ethyl)-N-methyl-acetamide] | 200 to 1000 nM
